Consider 3 compounds from ChEMBL document CHEMBL4364347, “Recent advances in class IIa histone deacetylases research” (Bioorg Med Chem, 2019).

SMILES strings stand for the structures. Where only a bound is given, the exact number is not on record here.

As usually defined, the Ki is the equilibrium dissociation constant of an inhibitor or competing ligand from its target. Low readings indicate a stronger hold on the target, high ones a looser hold on the target. By IC50 is commonly meant the concentration at which inhibition is half-maximal. A low value points to higher potency.

The target in one assay is Histone deacetylase 2 (Homo sapiens, UniProt Q92769). Kind of assay: Inhibition of HDAC2 (unknown origin).
Another assay concerns the target T1, Histone deacetylase 8 (Homo sapiens, UniProt Q9BY41).
T1 sequence (Q9BY41 whole entry): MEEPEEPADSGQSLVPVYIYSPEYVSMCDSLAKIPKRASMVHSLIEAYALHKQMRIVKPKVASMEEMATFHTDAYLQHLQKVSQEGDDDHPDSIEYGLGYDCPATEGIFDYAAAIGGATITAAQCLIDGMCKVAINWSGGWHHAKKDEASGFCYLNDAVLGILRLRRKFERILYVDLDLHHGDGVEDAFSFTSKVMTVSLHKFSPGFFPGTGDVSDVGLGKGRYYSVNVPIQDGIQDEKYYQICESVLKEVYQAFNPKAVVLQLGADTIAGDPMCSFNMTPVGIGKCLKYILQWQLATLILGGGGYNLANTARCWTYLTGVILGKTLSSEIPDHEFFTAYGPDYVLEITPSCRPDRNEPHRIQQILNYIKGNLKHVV
Kind of assay: Inhibition of HDAC8 (unknown origin).

Assay [1] has as its target T2, Histone deacetylase 9 (Homo sapiens, UniProt Q9UKV0). Kind of assay: Inhibition of HDAC9 (unknown origin).
Assay [2] has as its target T3, Polyamine deacetylase HDAC10 (Homo sapiens, UniProt Q969S8).
T3 sequence (Q969S8 whole entry): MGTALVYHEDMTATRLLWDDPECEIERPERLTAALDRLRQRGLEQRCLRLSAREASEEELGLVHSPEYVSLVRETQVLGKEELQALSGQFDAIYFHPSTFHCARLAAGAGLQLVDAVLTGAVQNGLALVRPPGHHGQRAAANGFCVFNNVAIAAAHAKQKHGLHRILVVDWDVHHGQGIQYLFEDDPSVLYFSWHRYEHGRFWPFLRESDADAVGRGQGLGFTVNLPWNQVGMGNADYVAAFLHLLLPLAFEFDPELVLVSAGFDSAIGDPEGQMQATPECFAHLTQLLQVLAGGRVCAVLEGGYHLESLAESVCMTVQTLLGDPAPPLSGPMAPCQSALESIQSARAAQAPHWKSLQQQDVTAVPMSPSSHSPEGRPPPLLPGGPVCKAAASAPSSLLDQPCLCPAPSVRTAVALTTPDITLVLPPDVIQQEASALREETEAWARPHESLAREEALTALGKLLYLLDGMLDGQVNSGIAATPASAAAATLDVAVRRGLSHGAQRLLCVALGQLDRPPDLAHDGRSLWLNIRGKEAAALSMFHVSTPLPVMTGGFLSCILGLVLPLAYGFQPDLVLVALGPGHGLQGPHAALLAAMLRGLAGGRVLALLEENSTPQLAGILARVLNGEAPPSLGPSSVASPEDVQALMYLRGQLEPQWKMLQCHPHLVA
Kind of assay: Inhibition of HDAC10 (unknown origin).

Assay [3] has as its target T4, Histone deacetylase 5 (Homo sapiens, UniProt Q9UQL6). Kind of assay: Inhibition of HDAC5 (unknown origin).
Assay [4] addresses T5, Histone deacetylase 4 (Homo sapiens, UniProt P56524). Kind of assay: Inhibition of HDAC4 (unknown origin).
The target of assay [5] is T6, Histone deacetylase 7 (Homo sapiens, UniProt Q8WUI4).
T6 sequence (Q8WUI4 whole entry): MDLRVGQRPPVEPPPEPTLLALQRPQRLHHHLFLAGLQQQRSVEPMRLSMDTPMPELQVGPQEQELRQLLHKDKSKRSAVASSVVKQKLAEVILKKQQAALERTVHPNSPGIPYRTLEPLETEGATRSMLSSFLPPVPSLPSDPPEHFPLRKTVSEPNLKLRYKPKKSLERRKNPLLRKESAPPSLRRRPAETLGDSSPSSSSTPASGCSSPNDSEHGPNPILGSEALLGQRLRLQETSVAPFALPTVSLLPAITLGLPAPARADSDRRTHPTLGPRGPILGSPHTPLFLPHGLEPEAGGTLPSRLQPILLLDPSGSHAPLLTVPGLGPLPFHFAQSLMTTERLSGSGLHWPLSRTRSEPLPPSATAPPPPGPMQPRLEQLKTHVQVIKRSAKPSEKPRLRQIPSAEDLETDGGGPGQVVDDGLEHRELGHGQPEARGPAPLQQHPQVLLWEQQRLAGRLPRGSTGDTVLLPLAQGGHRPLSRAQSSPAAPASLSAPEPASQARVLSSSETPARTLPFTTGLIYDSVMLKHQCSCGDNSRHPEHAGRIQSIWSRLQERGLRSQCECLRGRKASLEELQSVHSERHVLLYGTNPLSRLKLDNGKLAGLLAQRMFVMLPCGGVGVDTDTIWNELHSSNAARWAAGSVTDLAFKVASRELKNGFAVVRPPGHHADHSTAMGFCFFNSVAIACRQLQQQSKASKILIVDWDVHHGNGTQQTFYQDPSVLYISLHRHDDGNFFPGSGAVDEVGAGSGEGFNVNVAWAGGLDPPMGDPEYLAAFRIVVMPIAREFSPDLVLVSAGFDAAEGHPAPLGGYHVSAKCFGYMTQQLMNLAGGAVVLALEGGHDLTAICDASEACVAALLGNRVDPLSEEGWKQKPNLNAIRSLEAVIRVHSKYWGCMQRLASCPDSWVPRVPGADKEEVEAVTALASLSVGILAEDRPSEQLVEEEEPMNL
Kind of assay: Inhibition of HDAC7 (unknown origin).

A further assay deals with Histone deacetylase 3 (Homo sapiens, UniProt O15379). Kind of assay: Inhibition of HDAC3 (unknown origin).
Assay [6] concerns the target T7, Protein deacetylase HDAC6 (Homo sapiens, UniProt Q9UBN7).
T7 sequence (Q9UBN7 whole entry): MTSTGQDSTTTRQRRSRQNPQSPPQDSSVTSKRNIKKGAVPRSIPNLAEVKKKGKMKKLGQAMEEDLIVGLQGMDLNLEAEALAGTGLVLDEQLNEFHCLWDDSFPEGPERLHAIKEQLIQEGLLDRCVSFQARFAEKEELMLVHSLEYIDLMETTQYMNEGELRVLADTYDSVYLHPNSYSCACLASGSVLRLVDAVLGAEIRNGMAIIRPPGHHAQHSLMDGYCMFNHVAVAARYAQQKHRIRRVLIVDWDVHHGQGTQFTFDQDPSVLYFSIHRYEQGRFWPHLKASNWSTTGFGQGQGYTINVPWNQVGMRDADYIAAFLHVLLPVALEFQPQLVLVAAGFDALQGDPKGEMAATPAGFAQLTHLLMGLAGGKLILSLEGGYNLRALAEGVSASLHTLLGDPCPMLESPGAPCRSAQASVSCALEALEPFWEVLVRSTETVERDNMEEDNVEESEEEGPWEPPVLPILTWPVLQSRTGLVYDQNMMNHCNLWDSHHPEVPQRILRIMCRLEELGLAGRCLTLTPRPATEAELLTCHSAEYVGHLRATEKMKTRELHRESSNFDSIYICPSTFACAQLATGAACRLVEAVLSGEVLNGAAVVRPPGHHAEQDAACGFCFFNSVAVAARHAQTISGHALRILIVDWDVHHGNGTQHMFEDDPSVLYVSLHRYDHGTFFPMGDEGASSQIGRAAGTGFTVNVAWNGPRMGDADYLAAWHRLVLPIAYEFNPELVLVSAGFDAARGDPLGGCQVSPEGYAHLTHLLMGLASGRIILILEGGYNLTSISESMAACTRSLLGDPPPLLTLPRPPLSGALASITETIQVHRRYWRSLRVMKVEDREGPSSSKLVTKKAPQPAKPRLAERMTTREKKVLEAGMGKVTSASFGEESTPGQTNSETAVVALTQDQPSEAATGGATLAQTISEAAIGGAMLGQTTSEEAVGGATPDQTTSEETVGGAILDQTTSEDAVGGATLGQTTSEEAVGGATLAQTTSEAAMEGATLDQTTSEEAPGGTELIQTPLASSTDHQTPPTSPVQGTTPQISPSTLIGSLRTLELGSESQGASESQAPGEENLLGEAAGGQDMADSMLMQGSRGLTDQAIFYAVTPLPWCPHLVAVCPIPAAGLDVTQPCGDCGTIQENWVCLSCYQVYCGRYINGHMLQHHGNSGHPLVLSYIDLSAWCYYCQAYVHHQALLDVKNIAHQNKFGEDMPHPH
Kind of assay: Inhibition of HDAC6 (unknown origin).

A further assay has as its target T8, Histone deacetylase 11 (Homo sapiens, UniProt Q96DB2).
T8 sequence (Q96DB2 whole entry): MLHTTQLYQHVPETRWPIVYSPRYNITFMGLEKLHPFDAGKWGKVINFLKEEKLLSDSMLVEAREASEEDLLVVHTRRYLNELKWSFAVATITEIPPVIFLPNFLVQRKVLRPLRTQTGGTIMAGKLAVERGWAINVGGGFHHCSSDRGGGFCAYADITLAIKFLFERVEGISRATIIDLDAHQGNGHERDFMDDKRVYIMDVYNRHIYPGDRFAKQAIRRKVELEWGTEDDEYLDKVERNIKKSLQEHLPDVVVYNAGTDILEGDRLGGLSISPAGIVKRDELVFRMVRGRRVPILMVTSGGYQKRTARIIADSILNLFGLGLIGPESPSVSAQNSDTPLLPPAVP
Kind of assay: Inhibition of HDAC11 (unknown origin).

The next assay deals with Histone deacetylase 1 (Homo sapiens, UniProt Q13547). Kind of assay: Inhibition of HDAC1 (unknown origin).
For assay [7], the target named is T4, Histone deacetylase 5. Kind of assay: Inhibition of HDAC5 in human HeLa nuclear extract using Boc-Lys(Ac)-AMC as substrate preincubated for 5 mins followed by substrate addition measured after 30 mins by fluorometric assay. The class given is cell-free.
For assay [8], the target named is T5, Histone deacetylase 4. Kind of assay: Inhibition of HDAC4 in human HeLa nuclear extract using Boc-Lys(Ac)-AMC as substrate preincubated for 5 mins followed by substrate addition measured after 30 mins by fluorometric assay. The class given is cell-free.
For assay [9], the target named is T2, Histone deacetylase 9. Kind of assay: Inhibition of HDAC9 in human HeLa nuclear extract using Boc-Lys(Ac)-AMC as substrate preincubated for 5 mins followed by substrate addition measured after 30 mins by fluorometric assay. Format: cell-free.
The target of assay [10] is T7, Protein deacetylase HDAC6. Kind of assay: Inhibition of HDAC6 in human HeLa nuclear extract using Boc-Lys(Ac)-AMC as substrate preincubated for 5 mins followed by substrate addition measured after 30 mins by fluorometric assay. The class given is cell-free.
The target in assay [11] is T6, Histone deacetylase 7. Kind of assay: Inhibition of HDAC7 in human HeLa nuclear extract using Boc-Lys(Ac)-AMC as substrate preincubated for 5 mins followed by substrate addition measured after 30 mins by fluorometric assay. The class given is cell-free.

T5 sequence (P56524 whole entry): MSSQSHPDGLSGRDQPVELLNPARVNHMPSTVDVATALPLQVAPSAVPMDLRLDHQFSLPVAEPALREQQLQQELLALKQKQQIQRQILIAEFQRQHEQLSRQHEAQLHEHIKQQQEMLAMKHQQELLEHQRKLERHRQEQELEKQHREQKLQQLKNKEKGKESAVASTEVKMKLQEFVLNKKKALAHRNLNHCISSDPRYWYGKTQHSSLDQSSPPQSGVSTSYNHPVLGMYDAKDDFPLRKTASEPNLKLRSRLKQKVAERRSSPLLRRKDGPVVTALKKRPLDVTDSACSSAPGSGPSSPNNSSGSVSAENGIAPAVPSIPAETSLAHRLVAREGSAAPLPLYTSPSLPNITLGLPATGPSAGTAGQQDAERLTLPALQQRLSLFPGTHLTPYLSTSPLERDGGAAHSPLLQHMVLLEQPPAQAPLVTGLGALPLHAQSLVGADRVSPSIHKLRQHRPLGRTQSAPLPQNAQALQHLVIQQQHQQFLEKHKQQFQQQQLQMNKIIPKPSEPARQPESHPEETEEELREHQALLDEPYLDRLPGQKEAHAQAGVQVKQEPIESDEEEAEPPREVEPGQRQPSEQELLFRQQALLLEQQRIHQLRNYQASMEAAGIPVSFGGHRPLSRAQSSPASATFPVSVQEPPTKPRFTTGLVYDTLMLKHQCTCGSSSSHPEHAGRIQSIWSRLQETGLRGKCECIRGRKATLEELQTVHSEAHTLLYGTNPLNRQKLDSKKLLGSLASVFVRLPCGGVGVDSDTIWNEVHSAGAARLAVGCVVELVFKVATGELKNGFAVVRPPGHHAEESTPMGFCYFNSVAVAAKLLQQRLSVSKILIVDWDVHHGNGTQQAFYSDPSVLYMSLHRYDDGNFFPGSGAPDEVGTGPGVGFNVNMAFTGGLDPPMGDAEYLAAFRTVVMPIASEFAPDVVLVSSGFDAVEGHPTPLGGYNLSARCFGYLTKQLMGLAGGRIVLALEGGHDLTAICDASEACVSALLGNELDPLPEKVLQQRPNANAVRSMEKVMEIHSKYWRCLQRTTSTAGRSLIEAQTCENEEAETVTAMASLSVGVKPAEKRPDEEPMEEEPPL
T2 sequence (Q9UKV0 whole entry): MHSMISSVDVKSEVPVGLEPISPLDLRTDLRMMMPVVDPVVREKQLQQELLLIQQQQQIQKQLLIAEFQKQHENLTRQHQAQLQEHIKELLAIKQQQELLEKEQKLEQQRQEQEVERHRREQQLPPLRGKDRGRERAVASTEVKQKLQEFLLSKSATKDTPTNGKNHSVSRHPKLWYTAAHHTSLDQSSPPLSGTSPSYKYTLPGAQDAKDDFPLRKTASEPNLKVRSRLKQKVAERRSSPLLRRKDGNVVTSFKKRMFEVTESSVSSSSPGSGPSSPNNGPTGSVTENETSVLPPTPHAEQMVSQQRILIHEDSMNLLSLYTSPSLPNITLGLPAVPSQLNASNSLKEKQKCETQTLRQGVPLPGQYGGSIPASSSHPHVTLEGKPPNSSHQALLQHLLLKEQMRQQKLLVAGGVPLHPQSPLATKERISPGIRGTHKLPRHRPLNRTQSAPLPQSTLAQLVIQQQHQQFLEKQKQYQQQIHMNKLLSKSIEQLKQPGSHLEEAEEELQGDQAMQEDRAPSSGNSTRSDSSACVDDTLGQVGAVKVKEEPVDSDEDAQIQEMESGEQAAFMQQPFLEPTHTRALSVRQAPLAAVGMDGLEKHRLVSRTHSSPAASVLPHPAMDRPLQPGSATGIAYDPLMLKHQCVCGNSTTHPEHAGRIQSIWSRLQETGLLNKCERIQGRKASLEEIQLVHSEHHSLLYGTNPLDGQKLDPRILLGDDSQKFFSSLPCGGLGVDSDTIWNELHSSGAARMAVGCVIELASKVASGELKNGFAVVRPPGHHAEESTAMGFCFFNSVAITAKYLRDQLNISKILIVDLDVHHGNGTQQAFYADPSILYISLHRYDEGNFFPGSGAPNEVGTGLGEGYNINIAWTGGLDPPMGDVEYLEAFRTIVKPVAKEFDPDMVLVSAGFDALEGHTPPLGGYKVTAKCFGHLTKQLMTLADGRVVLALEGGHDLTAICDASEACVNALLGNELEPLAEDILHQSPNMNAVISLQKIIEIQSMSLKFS
T4 sequence (Q9UQL6 whole entry): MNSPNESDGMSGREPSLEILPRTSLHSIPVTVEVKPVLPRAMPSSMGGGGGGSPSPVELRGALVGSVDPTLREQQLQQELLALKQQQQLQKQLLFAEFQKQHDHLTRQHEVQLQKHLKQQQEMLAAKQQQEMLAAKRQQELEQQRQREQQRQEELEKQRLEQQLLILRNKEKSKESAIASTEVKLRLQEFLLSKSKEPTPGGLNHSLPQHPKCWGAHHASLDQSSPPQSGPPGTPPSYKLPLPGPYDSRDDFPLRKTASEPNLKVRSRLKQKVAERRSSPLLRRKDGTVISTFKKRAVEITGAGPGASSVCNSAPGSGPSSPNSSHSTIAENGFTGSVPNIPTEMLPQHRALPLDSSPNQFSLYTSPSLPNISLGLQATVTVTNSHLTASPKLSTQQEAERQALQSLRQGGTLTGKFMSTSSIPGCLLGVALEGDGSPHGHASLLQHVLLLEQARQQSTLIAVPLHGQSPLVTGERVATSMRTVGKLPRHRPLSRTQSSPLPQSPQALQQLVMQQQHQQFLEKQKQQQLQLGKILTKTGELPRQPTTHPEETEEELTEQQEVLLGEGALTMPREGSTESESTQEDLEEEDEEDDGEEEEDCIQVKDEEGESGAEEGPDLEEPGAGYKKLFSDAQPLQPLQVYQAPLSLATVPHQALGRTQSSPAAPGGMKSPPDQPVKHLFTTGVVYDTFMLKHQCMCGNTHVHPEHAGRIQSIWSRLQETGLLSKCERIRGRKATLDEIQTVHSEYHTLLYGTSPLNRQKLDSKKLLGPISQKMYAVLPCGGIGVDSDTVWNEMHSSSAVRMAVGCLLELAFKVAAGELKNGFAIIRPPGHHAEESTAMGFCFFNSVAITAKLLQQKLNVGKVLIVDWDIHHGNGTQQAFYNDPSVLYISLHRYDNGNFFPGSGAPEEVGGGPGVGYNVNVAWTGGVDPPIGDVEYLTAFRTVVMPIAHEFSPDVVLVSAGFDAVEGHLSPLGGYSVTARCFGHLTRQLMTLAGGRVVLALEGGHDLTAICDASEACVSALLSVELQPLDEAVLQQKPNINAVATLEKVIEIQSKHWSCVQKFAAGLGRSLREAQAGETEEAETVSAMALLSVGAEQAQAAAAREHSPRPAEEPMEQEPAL
Histone deacetylase 1, sequence (Q13547 whole entry): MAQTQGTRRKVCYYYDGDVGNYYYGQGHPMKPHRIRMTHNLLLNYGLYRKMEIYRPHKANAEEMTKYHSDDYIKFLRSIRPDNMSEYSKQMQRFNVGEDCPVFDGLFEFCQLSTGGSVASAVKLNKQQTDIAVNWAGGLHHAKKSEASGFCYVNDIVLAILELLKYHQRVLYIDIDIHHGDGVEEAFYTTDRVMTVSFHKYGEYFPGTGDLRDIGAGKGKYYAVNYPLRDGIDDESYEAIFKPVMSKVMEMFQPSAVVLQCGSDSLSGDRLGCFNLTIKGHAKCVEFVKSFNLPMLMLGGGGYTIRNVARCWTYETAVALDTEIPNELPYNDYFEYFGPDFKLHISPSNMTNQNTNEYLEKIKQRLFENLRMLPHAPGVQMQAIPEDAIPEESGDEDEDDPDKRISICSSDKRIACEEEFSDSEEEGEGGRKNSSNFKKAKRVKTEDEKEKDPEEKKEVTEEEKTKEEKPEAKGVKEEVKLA
Histone deacetylase 2, sequence (Q92769 whole entry): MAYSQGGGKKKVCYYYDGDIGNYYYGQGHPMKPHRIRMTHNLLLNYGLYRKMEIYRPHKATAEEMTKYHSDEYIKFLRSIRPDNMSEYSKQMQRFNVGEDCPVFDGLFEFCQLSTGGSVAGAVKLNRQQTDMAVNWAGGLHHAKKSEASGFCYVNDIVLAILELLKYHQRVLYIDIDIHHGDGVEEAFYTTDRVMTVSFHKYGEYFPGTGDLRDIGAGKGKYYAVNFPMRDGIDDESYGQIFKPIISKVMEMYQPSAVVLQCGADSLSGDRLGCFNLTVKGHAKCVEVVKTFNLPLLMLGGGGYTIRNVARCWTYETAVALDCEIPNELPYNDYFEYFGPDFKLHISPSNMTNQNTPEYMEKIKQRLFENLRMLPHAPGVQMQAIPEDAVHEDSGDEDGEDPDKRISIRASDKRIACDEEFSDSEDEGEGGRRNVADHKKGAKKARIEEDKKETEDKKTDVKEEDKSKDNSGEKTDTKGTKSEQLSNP
Histone deacetylase 3, sequence (O15379 whole entry): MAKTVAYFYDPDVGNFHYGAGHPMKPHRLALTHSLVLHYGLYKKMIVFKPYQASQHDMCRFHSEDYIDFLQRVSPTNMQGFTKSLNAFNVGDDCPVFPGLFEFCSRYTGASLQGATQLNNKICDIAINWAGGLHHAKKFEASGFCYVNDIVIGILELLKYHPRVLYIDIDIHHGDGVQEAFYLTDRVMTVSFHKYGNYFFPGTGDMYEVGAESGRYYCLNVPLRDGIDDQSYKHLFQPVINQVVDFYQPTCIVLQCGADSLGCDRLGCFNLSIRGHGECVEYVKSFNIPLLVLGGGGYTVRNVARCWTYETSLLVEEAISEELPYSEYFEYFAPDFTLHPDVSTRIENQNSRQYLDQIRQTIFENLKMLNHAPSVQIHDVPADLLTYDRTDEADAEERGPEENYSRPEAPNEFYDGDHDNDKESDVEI

On to `CN1CCC(CNC(=O)c2cccc(C(=O)NO)c2)(c2nc(-c3ccccc3)cs2)CC1`, for which the Ki was over 19 µM at Histone deacetylase 2; 1.33 µM at Histone deacetylase 8; 5.98 µM at Histone deacetylase 9 [1]; over 10 µM in assay [2]; 24.3 µM at Histone deacetylase 5 [3]; 23.8 µM on Histone deacetylase 4 [4]. Also, the Ki on Histone deacetylase 7 [5] was 3.94 µM; at Histone deacetylase 3, over 43 µM; in assay [6] it was 0.189 µM; at Histone deacetylase 11 it was over 19 µM; at Histone deacetylase 1, 11.9 µM.

Regarding `CN(Cc1cnc2nc(N)nc(N)c2n1)c1ccc(C(=O)NC(CCP(=O)(O)O)P(=O)(O)O)cc1` (stereo unspecified), the IC50 is over 40 µM on Histone deacetylase 5 [7]; over 40 µM at Histone deacetylase 4 [8]; 7.84 µM against Histone deacetylase 9 [1]; 1.27 µM against Histone deacetylase 5 [3]; 4.16 µM against Histone deacetylase 4 [4]; 16.2 µM on Histone deacetylase 7 [5]. Also, the IC50 (against Histone deacetylase 9 [9]; in [6]; in assay [10]; against Histone deacetylase 7 [11]) was over 40 µM throughout.

Consider `CN1CCC(CNC(=O)c2cccc(-c3noc(C(F)(F)F)n3)c2)(c2nc(-c3ccccc3)cs2)CC1`, for which the inhibition constant Ki is over 19 µM on Histone deacetylase 2; 7.66 µM at Histone deacetylase 8; 0.008 µM on Histone deacetylase 9 [1]; over 10 µM in [2]; 0.182 µM on Histone deacetylase 5 [3]; 0.075 µM at Histone deacetylase 4 [4]. Further, the Ki is over 43 µM at Histone deacetylase 3, 2.81 µM in assay [6], over 19 µM on Histone deacetylase 11 and over 23 µM on Histone deacetylase 1.
